According to the supplement of paper PMC11061612:

Legend:
Carboplatin = compound: C1CC(C1)(C(=O)[O-])C(=O)[O-].N.N.[Pt+2] [Carboplatin]; details: max 10 µM
Procedure, shortened: (§1)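 Cancer cell lines were plated in 1536-well plates in 7.5 μl of DMEM/F12 or RPMI with 10% FBS and kept 24 hours at 37°C and 5% CO2 before 72 hours of dosing, with final DMSO typically 0.2%. CellTiter-Glo 2.0 luminescence measured viability, scaled between blank-well and DMSO-well means. Dose responses were fitted to a two-parameter logistic curve with a non-linear mixed effects model. This fit gives the single-agent IC50.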

AZD5363 = compound: C1CN(CCC1(C(=O)N[C@@H](CCO)C2=CC=C(C=C2)Cl)N)C3=NC=NC4=C3C=CN4 [AZD5363]; details: max 10 µM
Procedure, shortened: as §1

AZD1775 = compound: C=CCn1c(=O)c2cnc(Nc3ccc(N4CCN(C)CC4)cc3)nc2n1-c1cccc(C(C)(C)O)n1 [AZD1775]; details: max 3 µM
Procedure, shortened: as §1

Trametinib = compound: CC(=O)Nc1cccc(-n2c(=O)n(C3CC3)c(=O)c3c(Nc4ccc(I)cc4F)n(C)c(=O)c(C)c32)c1 [Trametinib]; details: max 1 µM
Procedure, shortened: as §1

Paclitaxel = compound: CC(=O)O[C@H]1C(=O)[C@@]2(C)[C@H]([C@H](OC(=O)c3ccccc3)[C@]3(O)C[C@H](OC(=O)[C@H](O)[C@@H](NC(=O)c4ccccc4)c4ccccc4)C(C)=C1C3(C)C)[C@]1(OC(C)=O)CO[C@@H]1C[C@@H]2O [Paclitaxel]; details: max 3 µM
Procedure, shortened: as §1

Palbociclib = compound: CC(=O)c1c(C)c2cnc(Nc3ccc(N4CCNCC4)cn3)nc2n(C2CCCC2)c1=O [Palbociclib]; details: max 10 µM
Procedure, shortened: as §1

AZD1390 = compound: CC(C)n1c(=O)n(C)c2cnc3cc(F)c(-c4ccc(OCCCN5CCCCC5)nc4)cc3c21 [AZD1390]; details: max 0.3 µM
Procedure, shortened: as §1

Venetoclax = compound: CC1(C)CCC(CN2CCN(c3ccc(C(=O)NS(=O)(=O)c4ccc(NCC5CCOCC5)c([N+](=O)[O-])c4)c(Oc4cnc5[nH]ccc5c4)c3)CC2)=C(c2ccc(Cl)cc2)C1 [Venetoclax]; details: max 1 µM
Procedure, shortened: as §1

Dasatinib = compound: CC1=C(C(=CC=C1)Cl)NC(=O)C2=CN=C(S2)NC3=CC(=NC(=N3)C)N4CCN(CC4)CCO [Dasatinib]; details: max 2 µM
Procedure, shortened: as §1

SG3199 = compound: CC1=CN2[C@@H](C1)C=NC3=CC(=C(C=C3C2=O)OC)OCCCCCOC4=C(C=C5C(=C4)N=C[C@@H]6CC(=CN6C5=O)C)OC [SG3199]; details: max 0.001 µM
Procedure, shortened: as §1

AZD2811 = compound: CCN(CCO)CCCOc1ccc2c(Nc3cc(CC(=O)Nc4cccc(F)c4)[nH]n3)ncnc2c1 [AZD2811]; details: max 1 µM
Procedure, shortened: as §1

SN-38 = compound: CCc1c2c(nc3ccc(O)cc13)-c1cc3c(c(=O)n1C2)COC(=O)[C@]3(O)CC [SN-38]; details: max 0.3 µM
Procedure, shortened: as §1

AZD0156 = compound: CN(C)CCCOc1ccc(-c2ccc3ncc4c(c3c2)n(C2CCOCC2)c(=O)n4C)cn1 [AZD0156]; details: max 3 µM
Procedure, shortened: as §1

AZD4320 = compound: CN(CC[C@H](CSC1=CC=CC=C1)NC2=C(C=C(C=C2)S(=O)(=O)NC(=O)C3=CC=C(C=C3)N4CCC(CC4)[C@H](C5=CC=CC=C5C6=CC=C(C=C6)Cl)O)S(=O)(=O)C(F)(F)F)CCO [AZD4320]; details: max 1 µM
Procedure, shortened: as §1

Alisertib = compound: COc1cc(Nc2ncc3c(n2)-c2ccc(Cl)cc2C(c2c(F)cccc2OC)=NC3)ccc1C(=O)O [Alisertib]; details: max 10 µM
Procedure, shortened: as §1

Etoposide = compound: COc1cc([C@@H]2c3cc4c(cc3[C@@H](O[C@@H]3O[C@@H]5CO[C@@H](C)O[C@H]5[C@H](O)[C@H]3O)[C@H]3COC(=O)[C@H]23)OCO4)cc(OC)c1O [Etoposide]; details: max 10 µM
Procedure, shortened: as §1

Gefitinib = compound: COc1cc2ncnc(Nc3ccc(F)c(Cl)c3)c2cc1OCCCN1CCOCC1 [Gefitinib]; details: max 10 µM
Procedure, shortened: as §1

Prexasertib = compound: COc1cccc(OCCCN)c1-c1cc(Nc2cnc(C#N)cn2)n[nH]1 [Prexasertib]; details: max 1 µM
Procedure, shortened: as §1

Doxorubicin = compound: COc1cccc2c1C(=O)c1c(O)c3c(c(O)c1C2=O)C[C@@](O)(C(=O)CO)C[C@@H]3O[C@H]1C[C@H](N)[C@H](O)[C@H](C)O1 [Doxorubicin]; details: max 1 µM
Procedure, shortened: as §1

AZD5153 = compound: COc1nnc2ccc(N3CCC(c4ccc(OCCN5CCN(C)C(=O)[C@H]5C)cc4)CC3)nn12 [AZD5153]; details: max 1 µM
Procedure, shortened: as §1

Lapatinib = compound: CS(=O)(=O)CCNCc1ccc(-c2ccc3ncnc(Nc4ccc(OCc5cccc(F)c5)c(Cl)c4)c3c2)o1 [Lapatinib]; details: max 10 µM
Procedure, shortened: as §1

AZD8186 = compound: C[C@@H](Nc1cc(F)cc(F)c1)c1cc(C(=O)N(C)C)cc2c(=O)cc(N3CCOCC3)oc12 [AZD8186]; details: max 10 µM
Procedure, shortened: as §1

Crizotinib = compound: C[C@@H](Oc1cc(-c2cnn(C3CCNCC3)c2)cnc1N)c1c(Cl)ccc(F)c1Cl [Crizotinib]; details: max 10 µM
Procedure, shortened: as §1

Savolitinib = compound: C[C@@H](c1ccc2nccn2c1)n1nnc2ncc(-c3cnn(C)c3)nc21 [Savolitinib]; details: max 1 µM
Procedure, shortened: as §1

AZD6738 = compound: C[C@@H]1COCCN1C2=NC(=NC(=C2)C3(CC3)[S@](=N)(=O)C)C4=C5C=CNC5=NC=C4 [AZD6738]; details: max 10 µM
Procedure, shortened: as §1

AZD5991 = compound: Cc1c2c(nn1C)CSCc1cc(n(C)n1)CSc1cc(c3ccccc3c1)OCCCc1c(C(=O)O)n(C)c3c-2c(Cl)ccc13 [AZD5991]; details: max 1 µM
Procedure, shortened: as §1

AZD7648 = compound: Cc1cc2ncnn2cc1Nc1ncc2c(n1)n(C1CCOCC1)c(=O)n2C [AZD7648]; details: max 10 µM
Procedure, shortened: as §1

Taselisib = compound: Cc1nc(-c2cn3c(n2)-c2ccc(-c4cnn(C(C)(C)C(N)=O)c4)cc2OCC3)n(C(C)C)n1 [Taselisib]; details: max 10 µM
Procedure, shortened: as §1

Selumetinib = compound: Cn1cnc2c(F)c(Nc3ccc(Br)cc3Cl)c(C(=O)NOCCO)cc21 [Selumetinib]; details: max 10 µM
Procedure, shortened: as §1

SRA737 = compound: N#Cc1cnc(Nc2cc(NC[C@H]3CNCCO3)c(C(F)(F)F)cn2)cn1 [SRA737]; details: max 10 µM
Procedure, shortened: as §1

MK-2206 = compound: NC1(c2ccc(-c3nc4ccn5c(=O)[nH]nc5c4cc3-c3ccccc3)cc2)CCC1 [MK-2206]; details: max 10 µM
Procedure, shortened: as §1

Gemcitabine = compound: Nc1ccn([C@@H]2O[C@H](CO)[C@@H](O)C2(F)F)c(=O)n1 [Gemcitabine]; details: max 0.3 µM
Procedure, shortened: as §1

[1] = compound: O=C(Nc1ccc2[nH]nc(-c3ccncc3)c2c1)[C@@H]1CCN(CC(=O)N2CCN(c3ccc(-c4ncccn4)cc3)CC2)C1; details: max 5 µM
Procedure, shortened: as §1

Olaparib = compound: O=C(c1cc(Cc2n[nH]c(=O)c3ccccc23)ccc1F)N1CCN(C(=O)C2CC2)CC1 [Olaparib]; details: max 10 µM
Procedure, shortened: as §1

5-Fluorouracil = compound: O=c1[nH]cc(F)c(=O)[nH]1 [5-Fluorouracil]; details: max 20 µM
Procedure, shortened: as §1

| Cell Line | IC50, cell viability 72 h (Carboplatin) | IC50, cell viability 72 h (AZD5363) | IC50, cell viability 72 h (AZD1775) | IC50, cell viability 72 h (Trametinib) | IC50, cell viability 72 h (Paclitaxel) | IC50, cell viability 72 h (Palbociclib) | IC50, cell viability 72 h (AZD1390) | IC50, cell viability 72 h (Venetoclax) | IC50, cell viability 72 h (Dasatinib) | IC50, cell viability 72 h (SG3199) | IC50, cell viability 72 h (AZD2811) | IC50, cell viability 72 h (SN-38) | IC50, cell viability 72 h (AZD0156) | IC50, cell viability 72 h (AZD4320) | IC50, cell viability 72 h (Alisertib) | IC50, cell viability 72 h (Etoposide) | IC50, cell viability 72 h (Gefitinib) | IC50, cell viability 72 h (Prexasertib) | IC50, cell viability 72 h (Doxorubicin) | IC50, cell viability 72 h (AZD5153) | IC50, cell viability 72 h (Lapatinib) | IC50, cell viability 72 h (AZD8186) | IC50, cell viability 72 h (Crizotinib) | IC50, cell viability 72 h (Savolitinib) | IC50, cell viability 72 h (AZD6738) | IC50, cell viability 72 h (AZD5991) | IC50, cell viability 72 h (AZD7648) | IC50, cell viability 72 h (Taselisib) | IC50, cell viability 72 h (Selumetinib) | IC50, cell viability 72 h (SRA737) | IC50, cell viability 72 h (MK-2206) | IC50, cell viability 72 h (Gemcitabine) | IC50, cell viability 72 h [1] | IC50, cell viability 72 h (Olaparib) | IC50, cell viability 72 h (5-Fluorouracil) |
| --- | --- | --- | --- | --- | --- | --- | --- | --- | --- | --- | --- | --- | --- | --- | --- | --- | --- | --- | --- | --- | --- | --- | --- | --- | --- | --- | --- | --- | --- | --- | --- | --- | --- | --- | --- |
| CHL-1 (Melanoma) | > 10000 nM | > 10000 nM | 1680 nM | > 1000 nM | 19.2 nM | > 10000 nM | > 300 nM | > 1000 nM | > 2000 nM | > 1 nM | > 1000 nM | 143 nM | > 3000 nM | > 1000 nM | > 10000 nM | 8950 nM | > 10000 nM | 76.8 nM | > 1000 nM | 594 nM | 9960 nM | > 10000 nM | > 10000 nM | > 1000 nM | 2730 nM | > 1000 nM | > 10000 nM | 8260 nM | > 10000 nM | > 10000 nM | > 10000 nM | 218 nM | > 5000 nM | > 10000 nM | > 20000 nM |
| KYM-1 (Rhabdomyosarcoma) | > 10000 nM | 7860 nM | 926 nM | > 1000 nM | 5.57 nM | 522 nM | > 300 nM | > 1000 nM | > 2000 nM | > 1 nM | > 1000 nM | 23.5 nM | > 3000 nM | > 1000 nM | > 10000 nM | 668 nM | > 10000 nM | 33.8 nM | 485 nM | 54.8 nM | > 10000 nM | > 10000 nM | 2940 nM | > 1000 nM | 2640 nM | > 1000 nM | > 10000 nM | > 10000 nM | > 10000 nM | 846 nM | > 10000 nM | 5.74 nM | > 5000 nM | > 10000 nM | 8560 nM |
| LOUCY (T-Lymphoblastic Leukemia) | > 10000 nM | 2450 nM | 257 nM | > 1000 nM | 13.5 nM | > 10000 nM | > 300 nM | 31.7 nM | > 2000 nM | > 1 nM | 8.15 nM | 172 nM | > 3000 nM | 3.75 nM | 597 nM | 5000 nM | > 10000 nM | 6.97 nM | > 1000 nM | 385 nM | > 10000 nM | > 10000 nM | 4000 nM | > 1000 nM | 1310 nM | > 1000 nM | 7430 nM | 3530 nM | > 10000 nM | 2720 nM | 1230 nM | > 300 nM | > 5000 nM | > 10000 nM | > 20000 nM |
| KYSE-70 (Esophageal Squamous Cell Carcinoma) | > 10000 nM | > 10000 nM | > 3000 nM | > 1000 nM | > 3000 nM | > 10000 nM | > 300 nM | > 1000 nM | > 2000 nM | > 1 nM | > 1000 nM | > 300 nM | > 3000 nM | > 1000 nM | > 10000 nM | > 10000 nM | > 10000 nM | 241 nM | > 1000 nM | > 1000 nM | > 10000 nM | > 10000 nM | > 10000 nM | > 1000 nM | > 10000 nM | > 1000 nM | > 10000 nM | 4070 nM | > 10000 nM | > 10000 nM | > 10000 nM | > 300 nM | > 5000 nM | > 10000 nM | > 20000 nM |
| COLO-684 (Endometrial Carcinoma) | > 10000 nM | 4510 nM | 701 nM | > 1000 nM | 558 nM | > 10000 nM | > 300 nM | > 1000 nM | > 2000 nM | > 1 nM | > 1000 nM | 228 nM | > 3000 nM | > 1000 nM | > 10000 nM | > 10000 nM | > 10000 nM | 19.9 nM | > 1000 nM | 578 nM | > 10000 nM | 8930 nM | > 10000 nM | > 1000 nM | 4440 nM | > 1000 nM | > 10000 nM | 4200 nM | > 10000 nM | 5200 nM | 7210 nM | 134 nM | > 5000 nM | > 10000 nM | > 20000 nM |
